PubChem BioAssay AID248 (DTP/NCI, 2004)
Where “and” joins values, the source holds several entries; their conditions need not be identical. Equal values may be shown once. Inconclusive results and toxic doses are left out. Cut-off read from the data, not from the text of the source: active = T/C of 150% or more; inactive = T/C below 125%.

System: L1210 leukemia ip in BDF1 mice, survival T/C
Experiment: NCI In Vivo Anticancer Drug Screen. Data for tumor model L1210 Leukemia (intraperitoneal) in B6D2F1 (BDF1) mice
Conditions: endpoint: mean survival time, higher = longer survival
Method in brief: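 Ratio derived from survival: compound-dosed mice over vehicle-dosed mice, all bearing a transplantable tumor.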

[1] = dose: 100.0 mg/kg/injection, schedule: Q04DX003 (ip), vehicle: Klucel (hydroxypropylcellulose) (HPC)
[2] = dose: 200.0 mg/kg/injection, schedule: Q04DX003 (ip), vehicle: Klucel (hydroxypropylcellulose) (HPC)
[3] = dose: 400.0 mg/kg/injection, schedule: Q04DX003 (ip), vehicle: Klucel (hydroxypropylcellulose) (HPC)
[4] = dose: 100.0 mg/kg/injection, schedule: Q01DX009 (ip), vehicle: Klucel (hydroxypropylcellulose) (HPC)
[5] = dose: 400.0 mg/kg/injection, schedule: Q01DX009 (ip), vehicle: Klucel (hydroxypropylcellulose) (HPC)
[6] = dose: 100.0 mg/kg/injection, schedule: Q01DX009 (ip), vehicle: saline with Tween-80
[7] = dose: 100.0 mg/kg/injection, schedule: Q04DX003 (ip), vehicle: saline
[8] = dose: 200.0 mg/kg/injection, schedule: Q01DX009 (ip), vehicle: saline with Tween-80
[9] = dose: 200.0 mg/kg/injection, schedule: Q04DX003 (ip), vehicle: saline
[10] = dose: 400.0 mg/kg/injection, schedule: Q01DX009 (ip), vehicle: saline with Tween-80
[11] = dose: 100.0 mg/kg/injection, schedule: Q01DX001 (ip), vehicle: saline
[12] = dose: 200.0 mg/kg/injection, schedule: Q01DX001 (ip), vehicle: saline
[13] = dose: 400.0 mg/kg/injection, schedule: Q01DX001 (ip), vehicle: saline
[14] = dose: 100.0 mg/kg/injection, schedule: Q01DX001 (ip), vehicle: saline with Tween-80
[15] = dose: 200.0 mg/kg/injection, schedule: Q01DX001 (ip), vehicle: saline with Tween-80

Measured: T/C

NC(N)=N/N=C(\c1ccc(Cl)cc1)C1CC1
inactive: dose: 15.0 mg/kg/injection, schedule: Q01DX Z (ip), vehicle: methylcellulose (MC) 101 % of control | dose: 30.0 mg/kg/injection, schedule: Q01DX Z (ip), vehicle: methylcellulose (MC) 95 % of control | dose: 30.0 mg/kg/injection, schedule: Q01DX Z (oral), vehicle: methylcellulose (MC) 92 % of control | dose: 60.0 mg/kg/injection, schedule: Q01DX Z (ip), vehicle: methylcellulose (MC) 98 % of control | dose: 60.0 mg/kg/injection, schedule: Q01DX Z (oral), vehicle: methylcellulose (MC) 93 % of control | dose: 240.0 mg/kg/injection, schedule: Q01DX Z (oral), vehicle: methylcellulose (MC) 95 % of control | dose: 375.0 mg/kg/injection, schedule: Q01DX Z (oral), vehicle: methylcellulose (MC) 92 % of control | dose: 500.0 mg/kg/injection, schedule: Q01DX Z (oral), vehicle: methylcellulose (MC) 88 % of control

Cc1ccc(C)c([N+](=O)[O-])c1C(=O)O
inactive: dose: 100.0 mg/kg/injection, schedule: Q01DX001 (ip), vehicle: carboxymethylcellulose (CMC) 104 % of control | dose: 200.0 mg/kg/injection, schedule: Q01DX001 (ip), vehicle: carboxymethylcellulose (CMC) 96 % of control | dose: 400.0 mg/kg/injection, schedule: Q01DX001 (ip), vehicle: carboxymethylcellulose (CMC) 109 % of control

O=C(O)COc1ccc(Cl)cc1
inactive: [1] 97 % of control | [2] 100 % of control | [3] 100 % of control

CCOC(=O)C1(C(=O)OCC)CCC(O)N1C(=O)c1cc(OC)c(OC)cc1[N+](=O)[O-] (stereo not given)
inactive: [1] 97 % of control | [2] 99 % of control | [3] 97 % of control

CCOC(=O)CC1(C)NC(C(=O)O)C(C)(C)S1 (stereo not given)
inactive: [4] 97 % of control | [5] 97 % of control

Cc1cc(=O)[nH]c2c(C)cc(-c3cc(C)c4[nH]c(=O)cc(C)c4c3)cc12
inactive: [6] 101 % of control | [7] 98 % of control | [8] 97 % of control | [9] 91 % of control | [10] 92 % of control | dose: 400.0 mg/kg/injection, schedule: Q04DX003 (ip), vehicle: saline 98 % of control

c1ccc(CSC2=NCCS2)cc1
inactive: [11] 101 % of control | [6] 98 % of control | [12] 106 % of control | [8] 98 % of control | [13] 106 % of control | [10] 104 % of control

CCOC(=O)c1cc(=O)c2c(ccc3cc(OC)ccc32)[nH]1
inactive: dose: 6.25 mg/kg/injection, schedule: Q04DX002 (ip), vehicle: carboxymethylcellulose (CMC) 101 % of control and 89 % of control | dose: 12.5 mg/kg/injection, schedule: Q01DX001 (ip), vehicle: carboxymethylcellulose (CMC) 105 % of control | dose: 12.5 mg/kg/injection, schedule: Q01DX009 (ip), vehicle: carboxymethylcellulose (CMC) 94 % of control and 105 % of control | dose: 12.5 mg/kg/injection, schedule: Q04DX003 (ip), vehicle: carboxymethylcellulose (CMC) 100 % of control | dose: 25.0 mg/kg/injection, schedule: Q01DX001 (ip), vehicle: carboxymethylcellulose (CMC) 105 % of control | dose: 25.0 mg/kg/injection, schedule: Q01DX009 (ip), vehicle: carboxymethylcellulose (CMC) 97 % of control and 98 % of control | dose: 25.0 mg/kg/injection, schedule: Q04DX003 (ip), vehicle: carboxymethylcellulose (CMC) 93 % of control | dose: 50.0 mg/kg/injection, schedule: Q01DX001 (ip), vehicle: carboxymethylcellulose (CMC) 94 % of control | dose: 50.0 mg/kg/injection, schedule: Q01DX009 (ip), vehicle: carboxymethylcellulose (CMC) 94 % of control and 88 % of control | dose: 50.0 mg/kg/injection, schedule: Q04DX003 (ip), vehicle: carboxymethylcellulose (CMC) 100 % of control

O=C(OC/C(=C\Cl)OC(=O)c1ccc([N+](=O)[O-])cc1)c1ccc([N+](=O)[O-])cc1
inactive: [4] 100 % of control | dose: 200.0 mg/kg/injection, schedule: Q01DX009 (ip), vehicle: Klucel (hydroxypropylcellulose) (HPC) 105 % of control | [5] 100 % of control

Nc1c(F)c(F)c(C(=O)O)c(F)c1F
inactive: dose: 100.0 mg/kg/injection, schedule: Q04DX002 (ip), vehicle: saline 94 % of control and 101 % of control | dose: 200.0 mg/kg/injection, schedule: Q04DX002 (ip), vehicle: saline 97 % of control and 107 % of control | dose: 800.0 mg/kg/injection, schedule: Q04DX002 (ip), vehicle: saline 100 % of control

Cc1ccccc1OCC(Cl)CN(C)C (stereo not given)
inactive: [11] 100 % of control | [12] 102 % of control

Cc1nc(CON)cs1
inactive: dose: 50.0 mg/kg/injection, schedule: Q01DX009 (ip), vehicle: saline 92 % of control | [7] 100 % of control | dose: 200.0 mg/kg/injection, schedule: Q01DX009 (ip), vehicle: saline 90 % of control | [9] 92 % of control

C(=N\N=C\c1ccco1)/c1ccco1
inactive: [14] 98 % of control and 103 % of control | [15] 98 % of control

Cc1cscc(C)c1=S
inactive: dose: 6.25 mg/kg/injection, schedule: Q01DX009 (ip), vehicle: saline + alcohol 106 % of control | dose: 12.5 mg/kg/injection, schedule: Q01DX009 (ip), vehicle: saline + alcohol 105 % of control | dose: 25.0 mg/kg/injection, schedule: Q01DX009 (ip), vehicle: saline + alcohol 92 % of control

CN(C)C(=S)Oc1ccc(C(F)(F)F)cc1
inactive: [1] 95 % of control | [2] 93 % of control | [3] 101 % of control

Oc1ccc(Br)cc1/C=N/N1CCN(/N=C/c2cc(Br)ccc2O)CC1
inactive: [11] 96 % of control | [12] 92 % of control | [13] 90 % of control

Cc1cc(C)cc(N=Cc2ccccc2)c1
inactive: dose: 50.0 mg/kg/injection, schedule: Q01DX001 (ip), vehicle: saline with Tween-80 98 % of control | [14] 98 % of control | [15] 95 % of control

Nc1nc(CCCCc2ccc(NC(=O)CBr)cc2)c(CCCCc2ccccc2)c(=O)[nH]1
inactive: dose: 6.25 mg/kg/injection, schedule: Q04DX003 (ip), vehicle: saline with Tween-80 96 % of control | dose: 12.5 mg/kg/injection, schedule: Q04DX003 (ip), vehicle: saline with Tween-80 105 % of control | dose: 25.0 mg/kg/injection, schedule: Q04DX003 (ip), vehicle: saline with Tween-80 102 % of control and 110 % of control | dose: 50.0 mg/kg/injection, schedule: Q01DX001 (ip), vehicle: saline 108 % of control | dose: 100.0 mg/kg/injection, schedule: Q04DX003 (ip), vehicle: saline with Tween-80 91 % of control

CSc1ncnc2c1ncn2N(CCCl)C(C)=O
inactive: dose: 25.0 mg/kg/injection, schedule: Q01DX001 (ip), vehicle: other 96 % of control | dose: 25.0 mg/kg/injection, schedule: Q01DX009 (ip), vehicle: other 101 % of control | dose: 25.0 mg/kg/injection, schedule: Q04DX003 (ip), vehicle: other 100 % of control | dose: 50.0 mg/kg/injection, schedule: Q01DX001 (ip), vehicle: other 98 % of control | dose: 50.0 mg/kg/injection, schedule: Q01DX009 (ip), vehicle: other 105 % of control | dose: 50.0 mg/kg/injection, schedule: Q04DX003 (ip), vehicle: other 103 % of control | dose: 100.0 mg/kg/injection, schedule: Q01DX001 (ip), vehicle: other 96 % of control and 105 % of control | dose: 100.0 mg/kg/injection, schedule: Q01DX009 (ip), vehicle: other 97 % of control | dose: 100.0 mg/kg/injection, schedule: Q04DX003 (ip), vehicle: other 102 % of control

O=S(=O)(/C=C/c1ccccc1)N1CCOCC1
inactive: dose: 100.0 mg/kg/injection, schedule: Q01DX001 (ip), vehicle: acetone 111 % of control | dose: 100.0 mg/kg/injection, schedule: Q01DX009 (ip), vehicle: acetone 90 % of control | dose: 100.0 mg/kg/injection, schedule: Q04DX003 (ip), vehicle: acetone 100 % of control | dose: 200.0 mg/kg/injection, schedule: Q01DX001 (ip), vehicle: acetone 102 % of control | dose: 200.0 mg/kg/injection, schedule: Q01DX009 (ip), vehicle: acetone 93 % of control | dose: 200.0 mg/kg/injection, schedule: Q04DX003 (ip), vehicle: acetone 105 % of control | dose: 400.0 mg/kg/injection, schedule: Q01DX001 (ip), vehicle: acetone 101 % of control | dose: 400.0 mg/kg/injection, schedule: Q01DX009 (ip), vehicle: acetone 93 % of control | dose: 400.0 mg/kg/injection, schedule: Q04DX003 (ip), vehicle: acetone 97 % of control
